Data: US8575160B2, “Imidazole derivatives as aldosterone synthase inhibitors” (Novartis AG, priority 2009, dated 2013)

Key:
[1] = target: T1, aldosterone synthase (CYP11B2) (Homo sapiens, UniProt P19099); assay: cellular aldosterone production in NCI-H295R cells (aldosterone synthase inhibition); format: cell-based
T1 construct: host or cells: NCI-H295R
T1 sequence (P19099 25-503): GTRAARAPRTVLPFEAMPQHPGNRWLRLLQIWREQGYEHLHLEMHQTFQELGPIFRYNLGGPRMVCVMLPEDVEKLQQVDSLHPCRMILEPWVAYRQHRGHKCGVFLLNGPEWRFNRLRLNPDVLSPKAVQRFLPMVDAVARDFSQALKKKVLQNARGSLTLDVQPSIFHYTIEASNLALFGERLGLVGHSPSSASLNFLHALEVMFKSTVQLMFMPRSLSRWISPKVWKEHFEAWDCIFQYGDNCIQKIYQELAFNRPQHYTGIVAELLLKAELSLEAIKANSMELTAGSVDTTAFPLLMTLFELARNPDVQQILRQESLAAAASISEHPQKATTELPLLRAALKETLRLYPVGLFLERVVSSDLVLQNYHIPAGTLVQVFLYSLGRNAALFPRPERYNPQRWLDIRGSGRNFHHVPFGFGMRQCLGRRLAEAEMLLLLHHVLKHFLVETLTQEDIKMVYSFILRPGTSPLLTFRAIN
Description: In particular, the aldosterone synthase inhibitory activities in vitro can be determined by the following assay.
Human adrenocortical carcinoma NCI-H295R cell line was obtained from American Type Culture Collection (Manassas, Va.). Insulin/transferrin/selenium (ITS)-A supplement (100×), DMEM/F-12, antibiotic/antimycotic (100×), and fetal bovine serum (FBS) were purchased from Invitrogen (Carlsbad, Calif.). Anti-mouse PVT scintillation proximity assay (SPA) beads and NBS 96-well plates were obtained from GE Health Sciences (Piscataway, N.J.) and Corning (Acton, Mass.), respectively. Solid black 96-well flat bottom plates were purchased from Costar (Corning, N.Y.). Aldosterone and angiotensin (Ang II) were purchased from Sigma (St. Louis, Mo.). D[1,2,6,7-^3H(N)]aldosterone was acquired from PerkinElmer (Boston, Mass.). Nu-serum was a product of BD Biosciences (Franklin Lakes, N.J.).
For in vitro measurement of aldosterone activity, human adrenocortical carcinoma NCI-H295R cells are seeded in NBS 96-well plates at a density of 25,000 cells/well in 100 μl of a growth medium containing DMEM/F12 supplemented with 10% FCS, 2.5% Nu-serum, 1 μg ITS/ml, and 1× antibiotic/antimycotic. The medium is changed after culturing for 3 days at 37° C. under an atmosphere of 5% CO2/95% air. On the following day, cells are rinsed with 100 μl of phosphate-buffered saline (PBS) and incubated with 100 μl of treatment medium containing 1 μM Ang II and a compound at different concentrations in quadruplicate wells at 37° C. for 24 hr. At the end of incubation, 50 μl of medium is withdrawn from each well for measurement of aldosterone production by an SPA using mouse anti-aldosterone monoclonal antibodies.
Measurement of aldosterone activity can also be performed using a 96-well plate format. Each test sample is incubated with 0.02 μCi of D[1,2,6,7-^3H(N)]aldosterone and 0.3 μg of anti-aldosterone antibody in PBS containing 0.1% Triton X-100, 0.1% bovine serum albumin, and 12% glycerol in a total volume of 200 μl at room temperature for 1 hr. Anti-mouse PVT SPA beads (50 μl) are then added to each well and incubated overnight at room temperature prior to counting in a Microbeta plate counter. The amount of aldosterone in each sample is calculated by comparing with a standard curve generated using known quantities of the hormone.
(§1) Inhibition of the release of certain steroids can be used as a measure of the respective enzyme inhibition by the added test compounds. The dose-dependent inhibition of enzymic activity by a compound is calculated by means of an inhibition plot which is characterized by an IC50.
(§2) The IC50 values for active test compounds are ascertained by a simple linear regression analysis in order to construct inhibition plots without data weighting. The inhibition plot is calculated by fitting a 4-parameter logistic function to the raw data points using the least squares method. The equation of the 4-parameter logistic function is calculated as follows: Y=(d−a)/((1+(x/c)b))+a, where: a=minimum data level, b=gradient, I […], d=maximum data level, x=inhibitor concentration.

CYP11B1 = target: T2, CYP11B1 (Homo sapiens, UniProt P15538); assay: cellular cortisol production in NCI-H295R cells (CYP11B1 inhibition); format: cell-based
T2 construct: the NCI-H295R cells have CYP11 B1 (steroid 11 β-hydroxylase); host or cells: NCI-H295R
T2 sequence (P15538 25-503): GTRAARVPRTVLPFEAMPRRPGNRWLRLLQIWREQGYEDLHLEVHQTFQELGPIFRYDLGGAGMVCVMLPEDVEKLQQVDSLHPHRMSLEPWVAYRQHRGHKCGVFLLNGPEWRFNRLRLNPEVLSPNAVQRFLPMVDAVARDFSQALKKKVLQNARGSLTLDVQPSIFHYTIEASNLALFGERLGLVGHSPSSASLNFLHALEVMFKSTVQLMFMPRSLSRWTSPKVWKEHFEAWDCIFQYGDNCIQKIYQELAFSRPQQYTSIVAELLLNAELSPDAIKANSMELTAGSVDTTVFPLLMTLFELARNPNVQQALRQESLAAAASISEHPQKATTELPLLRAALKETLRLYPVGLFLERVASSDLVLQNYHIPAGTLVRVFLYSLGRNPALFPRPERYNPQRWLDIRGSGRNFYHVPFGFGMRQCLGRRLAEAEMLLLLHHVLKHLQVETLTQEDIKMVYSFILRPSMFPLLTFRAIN
Description: The in vitro inhibitory activities for CYP11B1 can be determined by the following assay.
The cell line NCI-H295R was originally isolated from an adrenocortical carcinoma and has been characterized in the literature through the stimulable secretion of steroid hormones and the presence of the enymes essential for steroidogenesis. Thus, the NCI-H295R cells have CYP11 B1 (steroid 11 β-hydroxylase). The cells show the physiological property of zonally undifferentiated human foetal adrenocortical cells which, however, have the capacity to produce the steroid hormones which are formed in the three, phenotypically distinguishable zones in the adult adrenal cortex.
The NCI-H295R cells (American Type Culture Collection, ATCC, Rockville, Md., USA) are grown in Dulbeoco's Modified Eagle'Ham F-12 Medium (DME/F12), which has been supplemented with Ulroser SF Serum (Soprachem, Cergy-Saint-Christophe, France), insulin, transferrin, selenite (I-T-S, Becton Dickinson Biosiences, Franklin lakes, NJ, USA) and antibiotics in 75 cm^2 cell culture vessels at 37° C. and in a 95% air-5% carbon dioxide atmosphere. The cells are subsequently transferred for colony formation into a 24-well incubation vessel. They are cultivated there in DME/F12 medium, which is now supplemented with 0.1% bovine serum instead of Ultroser SF for 24 hours. The experiment is initiated by cultivating the cells in DME/F12 medium which is supplemented with 0.1% bovine serum albumin and test compound, in the presence or absence of cell stimulants, for 72 hours. The test substance is added in a concentration range from 0.2 nanomolar to […]. Cell stimulants which can be used are angiotensin 11 (1 D or 100 nanomolar), potassium ions (16 millimolar), forskolin (10 micromolar) or a combination of two stimulants.
The excretion of aldosterone, cortisol, corticosterone and estradiol/estrone into the culture medium can be detected and quantified by commercially available, specific monoclonal antibodies in radioimmunoassays in accordance with the manufacturer's instructions.
as §1, §2

SMILES | IC50 [1] [nM] | IC50 (CYP11B1) [nM]
N#Cc1ccc([C@H]2C[C@](O)(CCc3ccccc3)c3cncn32)c(F)c1 [Example 1-12] | 2 | 6
N#Cc1ccc([C@H]2C[C@](O)(C#CC3CC3)c3cncn32)c(F)c1 [Example 1-52, 4-((5R,7S)-7-(cyclopropylethynyl)-7-hydroxy-6,7-dihydro-6H-pyrrolo[1,2-c]imidazol-5-yl)-3-fluorobenzonitrile] | 142 | 273
CCc1ccc([C@@]2(O)C[C@H](c3ccc(C#N)cc3F)n3cncc32)cc1 [Example 1-32] | 6 | 645
C=C[C@@]1(O)C[C@H](c2ccc(C#N)cc2F)n2cncc21 [Example 1-1, 3-fluoro-4-((5R,7S)-7-hydroxy-7-vinyl-6,7-dihydro-5H-pyrrolo[1,2-c]imidazol-5-yl)benzonitrile] | 11 | 472
N#Cc1ccc([C@H]2CC[C@](O)(c3ccc(-c4ccccc4)cc3)c3cncn32)cc1 [Example 1-41] | 72 | 135
CC1(C)[C@H](c2ccc(C#N)cc2F)n2cncc2[C@@]1(O)c1ccc(F)cc1 [Example 1-53, 3-fluoro-4-((5R,7R)-7-(4-fluorophenyl)-7-hydroxy-6,6-dimethyl-6,7-dihydro-5H-pyrrolo[1,2-c]imidazol-5-yl)benzonitrile] | 42 | 220
N#Cc1ccc([C@H]2C[C@](O)(c3cccc(C4CC4)c3)c3cncn32)c(F)c1 [Example 1-2, 4-((5R,7S)-7-(3-cyclopropylphenyl)-7-hydroxy-6,7-dihydro-5H-pyrrolo[1,2-c]imidazol-5-yl)-3-fluorobenzonitrile] | 27 | 84
Cn1c([C@@]2(O)C[C@H](c3ccc(C#N)cc3F)n3cncc32)cc2ccccc21 [Example 1-50] | 7 | 1800
N#Cc1ccc([C@H]2C[C@](O)(c3ccc4c(c3)OCO4)c3cncn32)c(F)c1 [Example 1-13] | 34 | 103
N#Cc1ccc([C@H]2C[C@](O)(CC(=O)Nc3cccc(OC(F)(F)F)c3)c3cncn32)c(F)c1 [Example 4-15] | 72 | 8780
Cc1ccc([C@@]2(O)C[C@H](c3ccc(C#N)cc3F)n3cncc32)cc1C [Example 1-4, 4-((5R,7S)-7-(3,4-dimethylphenyl)-7-hydroxy-6,7-dihydro-5H-pyrrolo[1,2-c]imidazol-5-yl)-3-fluorobenzonitrile] | 5 | 480

The next lines start with the values.

IC50 [1] [nM] | IC50 (CYP11B1) [nM] | SMILES
2 | 143 | N#Cc1ccc([C@H]2C[C@](O)(c3ccc4ccccc4c3)c3cncn32)c(F)c1 [Example 1-16]
1 | 14 | N#Cc1ccc([C@H]2C[C@@](O)(c3ccc4ccccc4c3)c3cncn32)c(F)c1 [Example 1-17]
64 | 10200 | Cc1cc(-c2ccc([C@@]3(O)C[C@H](c4ccc(C#N)cc4F)n4cncc43)cc2)ccn1 [Example 3-14]
25 | 522 | N#Cc1ccc([C@H]2C[C@](O)(c3cccc(-c4ccc(F)cc4)c3)c3cncn32)c(F)c1 [Example 1-30]
6 | 338 | COc1cc(-c2cccc([C@@]3(O)C[C@H](c4ccc(C#N)cc4F)n4cncc43)c2)ccn1 [Example 2-10]
